US8487121B2, “Chromane derivatives as TRPV3 modulators” (Glenmark Pharmaceuticals S.A., priority 2007, dated 2013)

Biological target: T1, Human TRPV3 (Homo sapiens, UniProt Q8NET8)
T1 construct: expressed in transfected cells; host or cells: CHO cells (G-418 selected)
T1 sequence (Q8NET8 1-790): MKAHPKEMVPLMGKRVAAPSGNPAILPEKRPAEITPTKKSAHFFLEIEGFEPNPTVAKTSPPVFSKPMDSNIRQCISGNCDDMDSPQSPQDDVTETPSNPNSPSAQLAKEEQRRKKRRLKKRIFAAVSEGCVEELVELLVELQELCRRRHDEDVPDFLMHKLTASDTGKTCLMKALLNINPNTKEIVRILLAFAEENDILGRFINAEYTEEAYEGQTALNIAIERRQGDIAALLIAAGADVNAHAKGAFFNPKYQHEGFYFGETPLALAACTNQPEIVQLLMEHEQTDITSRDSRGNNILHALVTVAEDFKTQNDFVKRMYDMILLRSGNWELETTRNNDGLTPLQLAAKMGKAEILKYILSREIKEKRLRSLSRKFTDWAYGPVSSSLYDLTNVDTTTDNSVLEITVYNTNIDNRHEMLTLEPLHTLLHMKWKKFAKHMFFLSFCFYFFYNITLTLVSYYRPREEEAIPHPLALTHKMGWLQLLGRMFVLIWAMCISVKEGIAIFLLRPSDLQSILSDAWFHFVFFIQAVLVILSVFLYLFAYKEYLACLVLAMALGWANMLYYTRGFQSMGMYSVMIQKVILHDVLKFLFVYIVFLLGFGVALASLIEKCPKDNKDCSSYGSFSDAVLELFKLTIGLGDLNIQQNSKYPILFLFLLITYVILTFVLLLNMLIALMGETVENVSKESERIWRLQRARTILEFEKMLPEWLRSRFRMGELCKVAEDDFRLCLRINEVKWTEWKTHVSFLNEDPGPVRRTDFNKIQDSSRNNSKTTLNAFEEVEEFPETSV
Assay: 45Calcium uptake assay: inhibition of 2-APB induced cellular uptake of radioactive calcium
Type: cell-based
Conditions: human TRPV3 expressing CHO cells, 2-APB 500 μM
Method in brief: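 CHO cells stably expressing human TRPV3 (~50,000/well) were preincubated with compounds for 10 min in medium containing 0.1% BSA, 1.8 mM CaCl2 and 0.5% DMSO. Then 500 μM 2-APB and 5 μCi/ml 45Ca2+ were added for 4 min. Lysate radioactivity was expressed as % of maximal uninhibited response, and IC50 came from nonlinear regression, alongside % inhibition at 1.0 and 10.0 μM.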

O=C(CCc1ccccc1OC1CCCC1)N[C@H]1CC2(CCC2)Oc2cc(OCc3ccccc3)ccc21 [Example 33, 7-Benzyloxy-N-(3,4-dihydrospiro[chromene-2,1′-cyclobutan]-4-yl)-3-(2-cyclopentylxoyphenyl)propanamide]
inhibition at 1 µM (1.0 μM compound, read-out: Percentage inhibition at 1.0 μM): 13.5%
inhibition at 10 µM (10.0 μM compound, read-out: Percentage inhibition at 10.0 μM): 33.9%
